From PubChem BioAssay AID2060623 (Molecular Pharmacology Branch, DTP, NCI, 2025)

Tested on: 227483-062-R1-J1-PDC complex spheroids with HUVEC/MSC, viability
Experiment: Anticancer human tumor 227483-062-R1-J1-PDC patient-derived pancreatic carcinoma cell line growth inhibition [CLK]
Details: for IC50: curve of first compound; for viability, T/C: stronger effect = lower value
In short: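 Multi-cell-type spheroids combined patient-derived tumor cells with HUVEC endothelial cells and human mesenchymal stem cells. Paired agents were dosed in half-log steps down from about clinical Cmax, or from 10 microM where Cmax was unknown.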

[1] = second compound 0.0316 µM, first compound 0.0316 µM
[2] = second compound 0.0316 µM, first compound 0.1 µM
[3] = second compound 0.0316 µM, first compound 0.316 µM
[4] = second compound 0.0316 µM, first compound 1 µM
[5] = second compound 0.0316 µM, first compound 3.16 µM
[6] = second compound 0.0316 µM, first compound 10 µM
[7] = second compound 0.1 µM, first compound 0.0316 µM
[8] = second compound 0.1 µM, first compound 0.1 µM
[9] = second compound 0.1 µM, first compound 0.316 µM
[10] = second compound 0.1 µM, first compound 1 µM
[11] = second compound 0.1 µM, first compound 3.16 µM
[12] = second compound 0.1 µM, first compound 10 µM
[13] = second compound 0.316 µM, first compound 0.0316 µM
[14] = second compound 0.316 µM, first compound 0.1 µM
[15] = second compound 0.316 µM, first compound 0.316 µM
[16] = second compound 0.316 µM, first compound 1 µM
[17] = second compound 0.316 µM, first compound 3.16 µM
[18] = second compound 0.316 µM, first compound 10 µM
[19] = second compound 1 µM, first compound 0.0316 µM
[20] = second compound 1 µM, first compound 0.1 µM
[21] = second compound 1 µM, first compound 0.316 µM
[22] = second compound 1 µM, first compound 1 µM
[23] = second compound 1 µM, first compound 3.16 µM
[24] = second compound 1 µM, first compound 10 µM
[25] = second compound 3.16 µM, first compound 0.0316 µM
[26] = second compound 3.16 µM, first compound 0.1 µM
[27] = second compound 3.16 µM, first compound 0.316 µM
[28] = second compound 3.16 µM, first compound 1 µM
[29] = second compound 3.16 µM, first compound 3.16 µM
[30] = second compound 3.16 µM, first compound 10 µM
[31] = second compound 10 µM, first compound 0.0316 µM
[32] = second compound 10 µM, first compound 0.1 µM
[33] = second compound 10 µM, first compound 0.316 µM
[34] = second compound 10 µM, first compound 1 µM
[35] = second compound 10 µM, first compound 3.16 µM
[36] = second compound 10 µM, first compound 10 µM
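Also: spheroids exposed to compounds for seven days before readout.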
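For viability, T/C in this document: percent of DMSO vehicle control luminescence as 100% viability.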

COc1cccc2c1C(=O)c1c(O)c3c(c(O)c1C2=O)CC(O)(C(=O)CO)CC3OC1CC(N)C(O)C(C)O1 (stereo unspecified) + CN1CCN(c2cc(C(=O)Nc3cc4cc(-c5cnn(C)c5)ccc4cn3)ccn2)CC1
IC50 (second compound 0.0316 µM): 180 nM | IC50 (second compound 0.1 µM): 73.4 nM | IC50 (second compound 0.316 µM): < 31.6 nM | IC50 (second compound 1 µM): < 31.6 nM | IC50 (second compound 3.16 µM): < 31.6 nM | IC50 (second compound 10 µM): < 31.6 nM | viability, T/C [1]: 84.1% | viability, T/C [2]: 68% | viability, T/C [3]: 32.8% | viability, T/C [4]: 12.8% | viability, T/C [5]: 2.47% | viability, T/C [6]: 10.4% | viability, T/C [7]: 64.5% | viability, T/C [8]: 44.6% | viability, T/C [9]: 17.3% | viability, T/C [10]: 8.44% | viability, T/C [11]: 2.6% | viability, T/C [12]: 10.8% | viability, T/C [13]: 5.51% | viability, T/C [14]: 5.14% | viability, T/C [15]: 1.16% | viability, T/C [16]: 1.51% | viability, T/C [17]: 3.05% | viability, T/C [18]: 9.1% | viability, T/C [19]: 1.69% | viability, T/C [20]: 1.91% | viability, T/C [21]: 2.92% | viability, T/C [22]: 4.33% | viability, T/C [23]: 3.24% | viability, T/C [24]: 11% | viability, T/C [25]: 5.16% | viability, T/C [26]: 2.78% | viability, T/C [27]: 2.53% | viability, T/C [28]: 3.22% | viability, T/C [29]: 3.62% | viability, T/C [30]: 7.06% | viability, T/C [31]: 3.68% | viability, T/C [32]: 1.75% | viability, T/C [33]: 1.37% | viability, T/C [34]: 1.43% | viability, T/C [35]: 1.53% | viability, T/C [36]: 1.26%

CC1COCCN1c1cc(C2(S(C)(=N)=O)CC2)nc(-c2ccnc3[nH]ccc23)n1 (stereo unspecified) + CNC(=O)c1ccc(Nc2nc(OC3CCCC3)c3c(-c4ccc5nc(C)oc5c4)c[nH]c3n2)c(OC)c1
IC50 (second compound 0.0316 µM): > 10000 nM | IC50 (second compound 0.1 µM): > 10000 nM | IC50 (second compound 0.316 µM): 7130 nM | IC50 (second compound 1 µM): 1380 nM | IC50 (second compound 3.16 µM): 237 nM | IC50 (second compound 10 µM): < 31.6 nM | viability, T/C [1]: 110% | viability, T/C [2]: 105% | viability, T/C [3]: 110% | viability, T/C [4]: 102% | viability, T/C [5]: 85.3% | viability, T/C [6]: 63.3% | viability, T/C [7]: 125% | viability, T/C [8]: 108% | viability, T/C [9]: 103% | viability, T/C [10]: 108% | viability, T/C [11]: 65% | viability, T/C [12]: 62.3% | viability, T/C [13]: 96.4% | viability, T/C [14]: 107% | viability, T/C [15]: 92.9% | viability, T/C [16]: 79.7% | viability, T/C [17]: 64.1% | viability, T/C [18]: 44.3% | viability, T/C [19]: 76.8% | viability, T/C [20]: 68.9% | viability, T/C [21]: 73.4% | viability, T/C [22]: 53% | viability, T/C [23]: 39.1% | viability, T/C [24]: 30.6% | viability, T/C [25]: 59.7% | viability, T/C [26]: 52.9% | viability, T/C [27]: 48.1% | viability, T/C [28]: 40.9% | viability, T/C [29]: 33.9% | viability, T/C [30]: 18.6% | viability, T/C [31]: 39.8% | viability, T/C [32]: 34.6% | viability, T/C [33]: 39.5% | viability, T/C [34]: 32.5% | viability, T/C [35]: 24.2% | viability, T/C [36]: 14.5%

C=C(F)C(=O)N1CCN(c2nc(OCC3CCCN3C)nc3c2CCN(c2cccc4cccc(Cl)c24)C3)CC1CC#N (stereo unspecified) + CN1CCN(c2cc(C(=O)Nc3cc4cc(-c5cnn(C)c5)ccc4cn3)ccn2)CC1
IC50 (second compound 0.0316 µM): 6190 nM | IC50 (second compound 0.1 µM): 4890 nM | IC50 (second compound 0.316 µM): < 31.6 nM | IC50 (second compound 1 µM): < 31.6 nM | IC50 (second compound 3.16 µM): < 31.6 nM | IC50 (second compound 10 µM): < 31.6 nM | viability, T/C [1]: 87.7% | viability, T/C [2]: 104% | viability, T/C [3]: 102% | viability, T/C [4]: 86.8% | viability, T/C [5]: 89.8% | viability, T/C [6]: 21.3% | viability, T/C [7]: 67.6% | viability, T/C [8]: 73.8% | viability, T/C [9]: 68% | viability, T/C [10]: 78.8% | viability, T/C [11]: 78.2% | viability, T/C [12]: 11.8% | viability, T/C [13]: 5.59% | viability, T/C [14]: 5.63% | viability, T/C [15]: 5.48% | viability, T/C [16]: 4.47% | viability, T/C [17]: 5.37% | viability, T/C [18]: 0.42% | viability, T/C [19]: 3.8% | viability, T/C [20]: 3.22% | viability, T/C [21]: 2.15% | viability, T/C [22]: 3.98% | viability, T/C [23]: 0.88% | viability, T/C [24]: 0.97% | viability, T/C [25]: 5.83% | viability, T/C [26]: 2.98% | viability, T/C [27]: 3.49% | viability, T/C [28]: 4.77% | viability, T/C [29]: 1.3% | viability, T/C [30]: 1.8% | viability, T/C [31]: 3.7% | viability, T/C [32]: 1.84% | viability, T/C [33]: 3.88% | viability, T/C [34]: 2.09% | viability, T/C [35]: 1.69% | viability, T/C [36]: 0.39%
